Source: patent US20250144186A1, “NOVEL THERAPEUTIC USES OF GARDNERELLA ENDOLYSINS” (priority 2022, published 2025)
In brackets after ≈: the same amount, converted by molar mass. Where two headings read alike, the source gives them in different places.

Tests used:
[1] = tested on: MDZ or MDZ-OH passaged Gardnerella strains grown as biofilm; assay: MBEC on biofilms of the six passaged strains, summary; format: cell-based, Gardnerella spp.
Protocol: (§1) Gardnerella spp. (see figures for strain specification) was resuspended in brain heart infusion broth supplemented with 2% (w/v) gelatin, 0.5% yeast extract (w/v), 0.1% starch (w/v) and 0.25% glucose (w/v) (sBHIG). Passaged strains were resuspended in unbuffered NYCB supplemented with 1% glucose (w/v) (sNYCB). The OD600 was set to 0.1 (approx. 10^7-10^8 CFU/mL) and the cell suspension was diluted 1:10 in growth medium as input for biofilm formation. A total of 200 μL of the respective bacterial suspensions was added to 96-well flat bottom plates (tissue-culture treated, Sigma-Aldrich). The biofilms were grown under anaerobic conditions at 37° C. for 40 to 72 hours, depending on the isolate. Subsequently, the supernatant was removed, and the biofilm was treated with antimicrobials dissolved in sBHIG (at pH 5 for treatment with PM-477 (H2B10), and unbuffered for treatment with antibiotics) in 100 μL and incubated anaerobically at 37° C. for another 24 hours. After the treatment, the biofilms were washed twice with 200 μL 1x PBS and dissolved by vigorous pipetting (40x up and down). Serial dilutions of the dissolved cells were spotted on chocolate agar plates. The plates were incubated anaerobically for two to three days and the minimum biofilm eradication concentration (MBEC) of the endolysin or the antibiotics in use were calculated.

[2] = tested on: passaged G. piotii biofilm; assay: MBEC on biofilms of passaged strains; format: cell-based, Gardnerella piotii; settings: G. piotii (UGent 18.01T) passaged with MDZ-OH
Protocol: as §1
(§2) All MICs determined after 48 h of incubation.

[3] = tested on: passaged G. vaginalis biofilm; assay: MBEC on biofilms of passaged strains; format: cell-based, Gardnerella vaginalis
Protocol: as §1, §2

[4] = tested on: Gardnerella piotii; assay: MIC / MBC99.5 assessment in suspension; format: cell-based; settings: Gardnerella piotii
Protocol: (§3) The minimum inhibitory concentration (MIC), which is a standard measure of the activity of antimicrobials, was determined according to the Clinical and Laboratory Standards Institute protocol (2018) Methods for Antimicrobial Susceptibility Testing of Anaerobic Bacteria (Carpenter et al., 2018). […] Controls for growth in the absence of antimicrobials were also included. OD600 was recorded by a microplate reader (Tecan, Grodig, Austria) after incubation at 37° C. for 48 h or, for some fast-growing strains, after incubation for 24 h. Absence of growth was defined as OD600≤0.14. […] MIC readout and MBC99.5 spotting were performed after 72 h incubation for H2B10B11.
(§4) However, topical intravaginal antibiotic administration is recommended for BV therapy, which allows to reach concentrations of active ingredients in the mg/mL range. […] Abbreviations: n.d., not determined; SJHB, St. Jan Hospital Bruges.
(§5) MIC90 is defined as the MIC value for 90% of the tested strains. For PM-477 (H2B10), the resistance breakpoint is not defined, therefore a “% resistant” is not defined (n.d.).

[5] = tested on: Gardnerella leopoldii; assay: MIC / MBC99.5 assessment in suspension; format: cell-based; settings: Gardnerella leopoldii
Protocol: as §3, §4, §5

[6] = tested on: Gardnerella vaginalis; assay: microbe, parasite or virus in culture; format: cell-based; settings: Gardnerella vaginalis
Protocol: as §3, §4, §5

[7] = tested on: passaged G. vaginalis; assay: MIC on strains passaged with MDZ or MDZ-OH; format: cell-based, Gardnerella vaginalis; settings: Gardnerella vaginalis, 48 h
Protocol: as §3, with “H2B10B11. MBC99.5 is the minimum concentration of an antibacterial agent that results in bacterial death of all cells in suspension up to a defined limit of detection, resulting in killing of at least 99.5% of bacteria.” for “H2B10B11.”
The final volume of the reaction was 100 µL and the reactions were performed in triplicate in 384-well plates. The OD600 was measured using a microplate reader (Tecan, Grodig, Austria) to generate timepoint 0 h baseline values. The reactions were incubated anaerobically for 24 h, then the OD600 was measured again, and the MIC was measured as the lowest concentration with OD600<0.14. […] This process was repeated for a maximum of 25 rounds. In each round, the input CFU/mL was determined by quantitative plating.
The susceptibility of Gardnerella strains before and after 8 to 9-times passaging with sub-MIC concentrations of MZD or MDZ-OH is shown in Table 4 below. All MICs determined after 48 h of incubation.

SMILES: Cc1ncc([N+](=O)[O-])n1CCO [MDZ, metronidazole]
- Susceptibility of MDZ-passaged strains grown as biofilm (FIG. 4) ([1]; 72 h pre-formed biofilms treated for 24 h): resistant
- MBEC, range over passaged strains ([1]; six strains passaged on MDZ or MDZ-OH, pre-formed biofilms, 24 h treatment): > 2048 µg/mL
- MBEC passaged [2]: >2048 µg/mL
- MBEC passaged ([3]; G. vaginalis (ATCC 14018T) passaged with MDZ): >2048 µg/mL
- MBEC passaged ([3]; G. vaginalis (UGent 09.07) passaged 8 times with MDZ-OH): >2048 µg/mL
- MBEC passaged ([3]; G. vaginalis (UGent BV50) passaged with MDZ-OH): >2048 µg/mL
- MIC ([4]; 48 h, read-out: MIC before passaging): 32 µg/mL (≈ 187 µM)
- MBC ([4]; G. piotii (BV049) UGent BV049.1): 32 µg/mL (≈ 187 µM)
- MBC ([4]; G. piotii (BV154) UGent BV154.1): 32 µg/mL (≈ 187 µM)
- MBC ([4]; G. piotii (FB041) UGent FB041): 64 µg/mL (≈ 374 µM)
- MIC ([4]; G. piotii (FB041) UGent FB041, suspension, read-out: MIC): 32 µg/mL (≈ 187 µM)
- MBC ([4]; G. piotii (Gp17) UGent 18.01(T)): 64 µg/mL (≈ 374 µM)
- MIC ([4]; G. piotii (Gp17) UGent 18.01(T), suspension, read-out: MIC): 32 µg/mL (≈ 187 µM)
- MIC ([4]; G. piotii (Gp22) UGent 21.28, suspension, read-out: MIC): 64 µg/mL (≈ 374 µM)
- MBC ([4]; G. piotii (P80275) UGent P80275): 64 µg/mL (≈ 374 µM)
- MIC ([4]; G. piotii (P80275) UGent P80275, suspension, read-out: MIC): 16 µg/mL (≈ 93.5 µM)
- N resistant (%) ([4]; N=7, resistance ≥32 μg/mL MDZ): 57%
- N resistant ([4]; N=7, resistance ≥32 μg/mL MDZ, ≥8 μg/mL CLI): 4
- MBC ([4]; G. piotii (BV140) UGent BV140.2): > 512 µg/mL
- MIC ([5]; G. leopoldii (BV217) UGent BV217.1, suspension, read-out: MIC): 256 µg/mL (≈ 1500 µM)
- N resistant (%) ([5]; N=3, resistance ≥32 μg/mL MDZ): 100%
- N resistant ([5]; N=3, resistance ≥32 μg/mL MDZ, ≥8 μg/mL CLI): 3
- MIC90 ([5]; N=3 strains, read-out: MIC90): > 256 µg/mL
- MBC ([5]; read-out: MBC99.5): 512 µg/mL (≈ 2990 µM)
- MIC90 [6]: 64 µg/mL (≈ 374 µM)
- MIC ([6]; 48 h, read-out: MIC before passaging, G. vaginalis (ATCC 14018T), 48 h incubation): 8 µg/mL (≈ 46.7 µM)
- MIC ([6]; 48 h, read-out: MIC before passaging, G. vaginalis (UGent 09.07), 48 h incubation): 64 µg/mL (≈ 374 µM)
- MIC ([6]; 48 h, read-out: MIC before passaging, G. vaginalis (UGent BV50), 48 h incubation): 32 µg/mL (≈ 187 µM)
- MBC ([6]; ATCC14018, 24 h, read-out: MBC99.5, G. vaginalis (Gv9) ATCC 14018(T), reduces CFU by 99.5% within 24 h): 16 µg/mL (≈ 93.5 µM)
- MIC ([6]; ATCC14018, G. vaginalis (Gv9) ATCC 14018(T), suspension): 8 µg/mL (≈ 46.7 µM)
- MIC ([6]; G. vaginalis (BV50) UGent BV50.1, suspension): 32 µg/mL (≈ 187 µM)
- MIC ([6]; G. vaginalis (FB049) UGent FB049-01, suspension): 16 µg/mL (≈ 93.5 µM)
- MIC ([6]; G. vaginalis (FB061) UGent FB061-03, suspension, read-out: MIC): 8 µg/mL (≈ 46.7 µM)
- MBC ([6]; G. vaginalis (FB061) UGent FB061-03, read-out: MBC99.5): 32 µg/mL (≈ 187 µM)
- MIC ([6]; G. vaginalis (Gv1) UGent 09.07, suspension, read-out: MIC): 64 µg/mL (≈ 374 µM)
- MBC ([6]; G. vaginalis (Gv1) UGent 09.07, read-out: MBC99.5): 512 µg/mL (≈ 2990 µM)
- MIC ([6]; G. vaginalis (Gv5) UGent 09.01, suspension, read-out: MIC): 8 µg/mL (≈ 46.7 µM)
- MBC ([6]; G. vaginalis (Gv5) UGent 09.01, read-out: MBC99.5): 512 µg/mL (≈ 2990 µM)
- MIC ([6]; G. vaginalis (Gv8) UGent 25.49, suspension, read-out: MIC): 8 µg/mL (≈ 46.7 µM)
- MBC ([6]; G. vaginalis (Gv8) UGent 25.49, read-out: MBC99.5): 32 µg/mL (≈ 187 µM)
- MIC Range ([6]; N=8 strains): 8 to 64 µg/mL
- MBC ([6]; read-out: MBC99.5, G. vaginalis (BV111) UGent BV111.5): 64 µg/mL (≈ 374 µM)
- MBC ([6]; read-out: MBC99.5, G. vaginalis (FB049) UGent FB049-01): 64 µg/mL (≈ 374 µM)
- MIC ([7]; read-out: MIC passaged, G. vaginalis (ATCC 14018T) passaged with sub-MIC MDZ, 48 h incubation): > 512 µg/mL
- MIC ([7]; read-out: MIC passaged, G. vaginalis (UGent 09.07) passaged 8 times with MDZ-OH, 48 h incubation): > 2050 µg/mL
- MIC ([7]; read-out: MIC passaged, G. vaginalis (UGent BV50) passaged with MDZ-OH, 48 h incubation): > 2050 µg/mL
